Results published in patent US9132141B2 (priority 2012, dated 2015).

System: non-adapted human Wuhan H3N2 strain
Assay type: in vivo
Conditions: cotton rats

CCCCCC/C=C\CCCCCCCCCC(=O)N[C@H]1[C@H](OC[C@H]2O[C@H](OP(=O)(O)O)[C@H](NC(=O)CC(=O)CCCCCCCCCCC)[C@@H](OCCCCCCCCCC)[C@@H]2O)O[C@H](COC)[C@@H](OP(=O)(O)O)[C@@H]1OCC[C@@H](CCCCCCC)OC [eritoran, α-D-Glucopyranose, 3-O-decyl-2-deoxy-6-O-[2-deoxy-3-O-[(3R)-3-methoxydecyl)-6-O-methyl-2-[[(-11Z)-1-oxo-11-octadecenyl)amino]-4-O-phosphono-β-D-glucopyranosyl]-2-[(1,3-dioxotetradecyl)amino]-1-(dihydrogen phosphate)]
lung expression of IL-6 and IL-10: decreased lung expression of IL-6 and IL-10
